The bioavailability is the share of a dose that reaches the circulation, judged against a reference dose that is usually intravenous.

These results are taken from US8895569B2, “Carbocyclic nucleosides and their pharmaceutical use and compositions” (Cellceutix Corporation, priority 2012, dated 2014).

Data set [1] relates to human psoriatic tissue. Description: Recovery from psoriasis in SCID mice implanted with human psoriatic tissue. In kind it is in vivo. Particulars: 10 mg, one time per day or BID. How it is done:
(§1) In order to examine efficacy of the (−) cis-[4-[2-amino-6-(cyclopropylamino)-9H-purin-9-yl]-2-cyclopentene-1-hydroxymethyl acetate in mice, male and female SCID mice (24 to 28 gms) 6 to 8 weeks old were purchased from Charles River Laboratory (Wilmington, Mass.). The animals were kept in standard rodent cages with isolator tops at 18-26° C., and a relative humidity of 30-70% on a 12 hour light/12 hour dark cycle. Mice were given rodent chow and water ad libitum. […] Suitable animals were selected for the assigned study.
(§2) Mice were subjected to total body irradiation to mildly suppress immune system at 120 rads per animal in a Gamma Cell Radiator. Mice were identified by ear punching.
24 Hours after the TBI, a 5 mm×5 mm cut of the human psoriatic tissue was transplanted on the skin of the mice, under ketamine/xylazine anesthesia. The tissues were adherent by using a skin cement. All animals survived the anesthesia and the surgery for the experiment. The complete fusion of the tissues was achieved by day 27. During treatments, mice were observed daily for any adverse affects. Mice body weights were taken prior to treatment and every other day during the post treatment. If an animal became unwell, any treatment of that animal was suspended. If there was no recovery, the animal was sacrificed. […]

The nature of data set [2]: Weight changes of treated mice. The class given is in vivo, SCID mice. Here is the method:
(§3) 24 Hours after the TBI, a 5 mm×5 mm cut of the human psoriatic tissue was transplanted on the skin of the mice, under ketamine/xylazine anesthesia. The tissues were adherent by using a skin cement. All animals survived the anesthesia and the surgery for the experiment. The complete fusion of the tissues was achieved by day 27. During treatments, mice were observed daily for any adverse affects. Mice body weights were taken prior to treatment and every other day during the post treatment. If an animal became unwell, any treatment of that animal was suspended. If there was no recovery, the animal was sacrificed. […] Mice transplant area size measurements were taken prior to treatment and every other day during and post treatment. The same scientist was responsible for taking the measurements throughout the study.
(§4) Prurisol was administered orally (PO) to the mice, along with the topical application at 8 hour intervals on the effected area. […] In psoriasis, anti-apoptotic protein G1P3 is over expressed, which is regulated by the non-coding RNA. Psoriasis susceptibility related RNA Gene Induced by Stress (PRINS) was examined in control animal's transplants and treated ones (the expression in psoriatic plaques will be 10 times higher), and results from these studies are shown below.

For data set [3], the system named is Psoriasis susceptibility related RNA Gene Induced by Stress (PRINS). In words: PRINS expression in human psoriatic tissue transplants on SCID mice. The class given is in vivo, SCID mice bearing human psoriatic tissue. Particulars: for PRINS: control 49. How it is done:
as §1, §2, §3
(§5) Groups of 5 male mice and 5 female mice bearing psoriatic tissues were treated with either (−) cis-[4-[2-amino-6-(cyclopropylamino)-9H-purin-9-yl]-2-cyclopentene-1-hydroxymethyl acetate (Prurisol) alone or methotrexate (MTX) according to the schedule below. Another group of mice remained untreated to serve as controls.
as §4

Data set [4] deals with IL-20. In words: IL-20 in tissue measured by ELISA, psoriatic xenograft SCID mice. The class given is in vivo, SCID mice bearing human psoriatic tissue. Particulars: for IL-20: ELISA, control 178; for reduction of IL-20 concentration in tissue: versus control. Here is the method: as §1, §2, §3, §5
IL-20 was also measured using ELISA technique and data is also shown below.
On the technique in general: An ELISA detects its analyte on a solid surface through an enzyme-linked reagent.

Data set [5] is described as follows: Oral bioavailability and disposition of Prurisol. Particulars: in vivo.
A short description of data set [6]: Storage stability. In kind it is physicochemical. Particulars: stored at ambient temperature, protected from light.
Setting [7] is: Prurisol 10 mg/kg, MTX 7.5 mg/kg.

Structures are written as SMILES.

For the compound `Nc1nc(NC2CC2)c2ncn([C@H]3C=C[C@@H](COC(=O)CO)C3)c2n1` [Prurisol], in data set [1], the “recovery from psoriasis (skin appearance, FIG. 6)” value is listed as “recovered from psoriasis”. In data set [2] (5 mg/kg on days 11 to 35 and 20 mg/kg topically), the weight loss entry is listed as “no weight loss”. Also, in data set [2] (orally (PO) along with topical application at 8 hour intervals), the “weight loss due to administration” value was “within acceptable limits”. Further, the PRINS is 24 in data set [3] (setting [7]) and 5 in data set [3] (Prurisol × 2 (2×10 mg/kg)). For the same compound, the “PRINS reduction in comparison to methotrexate” value in data set [3] (in vivo) is on record as “reduces PRINS significantly”. In addition, the IL-20 in data set [4] (setting [7]) is reported as 54; in data set [4] (Prurisol × 2 (2×10 mg/kg)) it was 18. Also, in data set [4], the “reduction of IL-20 concentration in tissue” value was found to be 3 fold. Also, the “crossing the blood brain barrier” value in data set [5] was “capable of crossing the blood brain barrier”. In addition, the metabolism route result in data set [5] is given as “metabolized primarily through alcohol dehydrogenase or glucuronyl transferase”. For the same compound, in data set [5] (oral, read-out: oral bioavailability (% F)), the bioavailability was 83%. For the same compound, the stability entry in data set [6] is “stable”.

`CN(Cc1cnc2nc(N)nc(N)c2n1)c1ccc(C(=O)N[C@@H](CCC(=O)O)C(=O)O)cc1` [MTX, methotrexate, reference compound] returned a PRINS in data set [3] (setting [7]) of 28. In addition, in data set [4] (setting [7]), the IL-20 is given as 127. Besides, the “reduction of IL-20 concentration in tissue” value in data set [4] worked out at 1.4 fold.
